According to publication PMC7395068, “The evolution of strategies to minimise the risk of human drug-induced liver injury (DILI) in drug discovery and development” (Archives of Toxicology, 2020):
Where two headings read alike, the source gives them in different places. Blank lines part the entries; values can stand above or below the compound they belong to.

Key:
[1] = Plasma free fraction (fu) and unbound Cmax (Cmax,u); format: in vitro ADME, human; conditions: unbound plasma Cmax
[2] = cited from earlier work; for DILI severity category (Chen et al. [2016]): LTKB DILIrank category; for DILI severity category (Chen et al. [2016]) / DILI severity category (Chen 2016): ref Chen et al. 2016; for DILI severity category (Chen 2016): human DILI classification, LTKB DILIrank
[3] = tested on: primary human hepatocytes, NIH3T3 fibroblasts, BSEP, CYP3A4; conditions: cited from earlier work
[4] = tested on: THLE or HepG2 cells, isolated mitochondria, BSEP; conditions: cited from earlier work
PHH = conditions: cited from earlier work; for PHH/100xCmax, Proctor (2017) / PHH/100uM, Proctor (2017): 2D PHH, ATP, ref Proctor et al. 2017; for PHH/100xCmax, Proctor (2017): IC50 < 100 × Cmax.tot; for PHH/100uM, Proctor (2017): IC50 threshold 100 µM; for PHH ATP <100uM: In vitro Assay, ref Proctor 2017
hLiMTs [5] = conditions: cited from earlier work; for hLiMTs ATP <100uM: In vitro Assay, ref Proctor 2017; for hLiMTs/100xCmax, Proctor (2017) / hLiMTs/100uM, Proctor (2017): ATP, ref Proctor et al. 2017; for hLiMTs/100xCmax, Proctor (2017): IC50 < 100 × Cmax.tot; for hLiMTs/100uM, Proctor (2017): IC50 threshold 100 µM
[6] = tested on: HepG2 C3A spheroid, BSEP, Glu/Gal in HepG2 cells, bioactivation; conditions: cited from earlier work; for Bayesian Machine Learning DILI prediction, Williams (2019): Bayesian modeling, ref Williams et al. 2019; for Bayesian Machine Learning: In vitro Assay, ref Williams 2019
[7] = read-out: Human plasma Cmax; total plasma Cmax.tot, median of 9 literature references; cited from earlier work
[8] = plasma free fraction; cited from earlier work
[9] = cited from earlier work; for Assigned DILI category: Chen et al. 2016 or literature alignment, ref Chen et al. 2016
hLiMTs [10] = assay: Combined HCI (HCS) and cellular ATP 3D assay in hLiMTs; conditions: for AC50 / minimal effective concentration: Homo sapiens; for DILI prediction hLiMTs (HCS-MEC): Microtissue model structural based (HCI), combined HCS and ATP, MEC < 25 × Cmax.tot cut-off; for hLiMTs <25x Avg Cmax ATP / hLiMTs <100x Avg Cmaxu ATP: ATP endpoint; for hLiMTs <25x Avg Cmax ATP / hLiMTs <25x Avg Cmax HCS / hLiMTs <25x Avg Cmax All: cut-off <25x Avg Cmax; for hLiMTs <100x Avg Cmaxu ATP / hLiMTs <100x Avg Cmaxu HCS / hLiMTs <100x Avg Cmaxu All: cut-off <100x Avg Cmaxu; for hLiMTs <25x Avg Cmax HCS / hLiMTs <100x Avg Cmaxu HCS: HCS endpoints; for hLiMTs <25x Avg Cmax All: all endpoints (ATP and HCS); for hLiMTs Cmax max All / hLiMTs Cmax min All / hLiMTs <10 uM All / hLiMTs <100x Avg Cmaxu All: all endpoints; for hLiMTs Cmax max All: Cmax max used; for hLiMTs Cmax min All: Cmax min used; for hLiMTs <10 uM All: cut-off <10 uM
HepaRG spheroids = assay: Combined HCI (HCS) and cellular ATP 3D assay in HepaRG spheroids; conditions: for HepaRG <25x Avg Cmax ATP / HepaRG <100x Avg Cmaxu ATP: ATP endpoint; for HepaRG <25x Avg Cmax ATP / HepaRG <25x Avg Cmax HCS / HepaRG <25x Avg Cmax All: cut-off <25x Avg Cmax; for HepaRG <100x Avg Cmaxu ATP / HepaRG <100x Avg Cmaxu HCS / HepaRG <100x Avg Cmaxu All: cut-off <100x Avg Cmaxu; for HepaRG <25x Avg Cmax HCS / HepaRG <100x Avg Cmaxu HCS: HCS endpoints; for HepaRG <25x Avg Cmax All: all endpoints (ATP and HCS); for HepaRG Cmax max All / HepaRG Cmax min All / HepaRG <10 uM All / HepaRG <100x Avg Cmaxu All: all endpoints; for HepaRG Cmax max All: Cmax max used; for HepaRG Cmax min All: Cmax min used; for HepaRG <10 uM All: cut-off <10 uM; for AC50 / minimal effective concentration: Homo sapiens; for HepaRG <25x Avg Cmax ATP / HepaRG <100x Avg Cmaxu ATP / HepaRG <25x Avg Cmax HCS / HepaRG <100x Avg Cmaxu HCS / HepaRG <25x Avg Cmax All / HepaRG Cmax max All / HepaRG Cmax min All / HepaRG <10 uM All / HepaRG <100x Avg Cmaxu All / AC50 / minimal effective concentration: HepaRG; for DILI prediction HepaRG spheroids (HCS-MEC): Microtissue model structural based (HCI), combined HCS and ATP, MEC < 25 × Cmax.tot cut-off
human hepatocytes = conditions: cited from earlier work
PHH spheroids = conditions: cited from earlier work
[11] = human DILI severity, ref Chen et al.
[12] = In vitro Assay, ref Schadt 2015
[13] = Modeled in vitro assays (cytotoxicity, mitochondrial dysfunction, BSEP), ref Aleo et al. 2019

- Human plasma Cmax,u [1]: 72 nM
- hLiMTs <25x Avg Cmax ATP (hLiMTs [10]): -ve
- hLiMTs <100x Avg Cmaxu ATP (hLiMTs [10]): -ve
- hLiMTs <25x Avg Cmax HCS (hLiMTs [10]): +ve
- hLiMTs <100x Avg Cmaxu HCS (hLiMTs [10]): -ve
- hLiMTs <25x Avg Cmax All (hLiMTs [10]): +ve
- hLiMTs Cmax max All (hLiMTs [10]): +ve
- hLiMTs Cmax min All (hLiMTs [10]): -ve
- hLiMTs <10 uM All (hLiMTs [10]): -ve
- hLiMTs <100x Avg Cmaxu All (hLiMTs [10]): -ve
- HepaRG <25x Avg Cmax ATP (HepaRG spheroids): +ve
- HepaRG <100x Avg Cmaxu ATP (HepaRG spheroids): -ve
- HepaRG <25x Avg Cmax HCS (HepaRG spheroids): +ve
- HepaRG <100x Avg Cmaxu HCS (HepaRG spheroids): -ve
- HepaRG <25x Avg Cmax All (HepaRG spheroids): +ve
- HepaRG Cmax max All (HepaRG spheroids): +ve
- HepaRG Cmax min All (HepaRG spheroids): +ve
- HepaRG <10 uM All (HepaRG spheroids): -ve
- HepaRG <100x Avg Cmaxu All (HepaRG spheroids): -ve
SMILES: CCN(CC)C(=O)/C(C#N)=C/c1cc(O)c(O)c([N+](=O)[O-])c1 [entacapone]
- DILI severity category (Chen et al. [2016]) [2]: Less
- DILI severity category (Chen 2016) [2]: Less
- DILI severity category [2, 11]: Less
- DILI +VE (5-8), DILI -VE (-4) ([2]; ref Chen 2016): +VE
- DILI severity category ([2]; ref Chen 2016): vLess-DILI-Concern
- DILI in vitro assay prediction, Schadt (2015) ([3]; BSEP & Metabolism based, ref Schadt et al. 2015): -VE
- Cellular toxicity (3T3 cells) [3, 12]: -VE
- Combined Assay [3, 12]: -VE
- GSH adduct HML [3, 12]: -VE
- Hepatocyte cellular toxicity [3, 12]: -VE
- MitoTox 3T3 [3, 12]: -VE
- TDI CYP3A4 [3, 12]: -VE
- hBSEP inhibition [3, 12]: -VE
- Partition Hybrid HRM Score ([4]; In vitro Assay, ref Aleo 2019): +VE
- Ro2 Hybrid HRM Score ([4]; In vitro Assay, ref Aleo 2019): +VE
- Partition Hybrid HRM Score ≥4, Aleo (2019) [4, 13]: +VE (Partition Hybrid HRM Score ≥4)
- Partition Hybrid HRM Score ≥8, Aleo (2019) [4, 13]: +VE (Partition Hybrid HRM Score ≥8)
- Rule of Two hybrid HRM Score ≥3, Aleo (2019) [4, 13]: +VE (Rule of Two hybrid HRM Score ≥3)
- Rule of Two hybrid HRM Score ≥8, Aleo (2019) [4, 13]: -VE
- PHH/100xCmax, Proctor (2017) (PHH): +VE (IC50 < 100 × Cmax.tot)
- PHH/100uM, Proctor (2017) (PHH): -VE
- PHH ATP <100uM (PHH): +VE (IC50 threshold of 100 µM)
- hLiMTs ATP <100uM (hLiMTs [5]): -VE
- hLiMTs/100xCmax, Proctor (2017) (hLiMTs [5]): +VE (IC50 < 100 × Cmax.tot)
- hLiMTs/100uM, Proctor (2017) (hLiMTs [5]): -VE
- Bayesian Machine Learning DILI prediction, Williams (2019) [6]: -VE
- Bayesian Machine Learning [6]: -VE
- Cmax [7]: 3590 nM
- fu [8]: 0.020
- Assigned DILI category [9]: 2
- In vivo DILI ([9]; ref Aleo 2019): +VE
- In vivo DILI ([9]; ref Proctor 2017): -VE
- In vivo DILI ([9]; ref Schadt 2015): -VE
- In vivo DILI ([9]; ref Williams 2019): -VE
- AC50 (hLiMTs [10]; read-out: ATP endpoint AC50): 150 µM
- minimal effective concentration (hLiMTs [10]; read-out: ATP endpoint MEC): 125 µM
- AC50 (hLiMTs [10]; read-out: HCS endpoint AC50): 139 µM
- minimal effective concentration (hLiMTs [10]; read-out: HCS endpoint MEC): 88.8 µM
- DILI prediction hLiMTs (HCS-MEC) (hLiMTs [10]): +VE (MEC < 25 × Cmax.tot cut-off)
- AC50 (HepaRG spheroids; read-out: ATP endpoint AC50): 115 µM
- minimal effective concentration (HepaRG spheroids; read-out: ATP endpoint MEC): 45.5 µM
- AC50 (HepaRG spheroids; read-out: HCS endpoint AC50): 129 µM
- minimal effective concentration (HepaRG spheroids; read-out: HCS endpoint MEC): 45.4 µM
- DILI prediction HepaRG spheroids (HCS-MEC) (HepaRG spheroids): +VE (MEC < 25 × Cmax.tot cut-off)

- Human plasma Cmax,u [1]: 294 nM
- hLiMTs <25x Avg Cmax ATP (hLiMTs [10]): -ve
- hLiMTs <100x Avg Cmaxu ATP (hLiMTs [10]): -ve
- hLiMTs <25x Avg Cmax HCS (hLiMTs [10]): -ve
- hLiMTs <100x Avg Cmaxu HCS (hLiMTs [10]): -ve
- hLiMTs <25x Avg Cmax All (hLiMTs [10]): -ve
- hLiMTs Cmax max All (hLiMTs [10]): -ve
- hLiMTs Cmax min All (hLiMTs [10]): -ve
- hLiMTs <10 uM All (hLiMTs [10]): -ve
- hLiMTs <100x Avg Cmaxu All (hLiMTs [10]): -ve
- HepaRG <25x Avg Cmax ATP (HepaRG spheroids): -ve
- HepaRG <100x Avg Cmaxu ATP (HepaRG spheroids): -ve
- HepaRG <25x Avg Cmax HCS (HepaRG spheroids): -ve
- HepaRG <100x Avg Cmaxu HCS (HepaRG spheroids): -ve
- HepaRG <25x Avg Cmax All (HepaRG spheroids): -ve
- HepaRG Cmax max All (HepaRG spheroids): -ve
- HepaRG Cmax min All (HepaRG spheroids): -ve
- HepaRG <10 uM All (HepaRG spheroids): -ve
- HepaRG <100x Avg Cmaxu All (HepaRG spheroids): -ve
SMILES: CC(C)(C)NCC(O)COc1cccc2c1CC(O)C(O)C2 (stereo not drawn) [nadolol]
- DILI severity category (Chen et al. [2016]) [2]: Ambiguous
- DILI severity category (Chen 2016) [2]: Ambiguous
- DILI severity category [2, 11]: Ambiguous
- DILI +VE (5-8), DILI -VE (-4) ([2]; ref Chen 2016): -VE
- DILI severity category ([2]; ref Chen 2016): Ambiguous DILI-concern
- Structural based (HCI) (human hepatocytes; In vitro Assay, ref Xu 2008): -VE
- DILI in vitro assay prediction, Xu (2008) (human hepatocytes; Structural based (HCI), human hepatocytes, ref Xu et al. 2008): -VE
- PHH/100xCmax, Proctor (2017) (PHH): -VE
- PHH/100uM, Proctor (2017) (PHH): -VE
- PHH ATP <100uM (PHH): -VE
- hLiMTs ATP <100uM (hLiMTs [5]): -VE
- hLiMTs/100xCmax, Proctor (2017) (hLiMTs [5]): -VE
- hLiMTs/100uM, Proctor (2017) (hLiMTs [5]): -VE
- hLiMTs ATP <20 x Cmax (PHH spheroids; In vitro Assay, ref Vorrink 2018): -VE
- DILI in vitro assay prediction, Vorrink (2018) (PHH spheroids; PHH spheroids, ATP, 14 days, IC20 < 20 × Cmax.tot, ref Vorrink et al. 2018): -VE
- Bayesian Machine Learning DILI prediction, Williams (2019) [6]: -VE
- Bayesian Machine Learning [6]: -VE
- Cmax [7]: 420 nM
- fu [8]: 0.700
- Assigned DILI category [9]: 1
- In vivo DILI ([9]; ref Proctor 2017): -VE
- In vivo DILI ([9]; ref Vorrink 2018): -VE
- In vivo DILI ([9]; ref Williams 2019): -VE
- In vivo DILI ([9]; ref Xu 2008): -VE
- DILI prediction hLiMTs (HCS-MEC) (hLiMTs [10]): -VE
- DILI prediction HepaRG spheroids (HCS-MEC) (HepaRG spheroids): -VE
